We go through 11 compounds from PubChem BioAssay (NCI).

Test systems include 786-0 renal; HT29 colon; DU-145 prostate; NCI/ADR-RES ovarian; HS 578T breast; NCI-H23 lung; PC-3 prostate; NCI-H460 lung; UACC-257 melanoma; MCF7 breast.
Holding throughout (assay): NCI-60 cell line screen, 48 h

Each structure is given as a SMILES string.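 Five compound concentrations were applied to cells in 96-well plates for 48 hours; endpoints were derived by simple linear interpolation of the resulting dose-response curve. TGI denotes the concentration required for complete inhibition of growth.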

On to `Cc1c(C#N)c(=N)oc2ccccc12`, for which the TGI in the assay with 786-0 renal, in the assay with HT29 colon, in the assay with DU-145 prostate, in the assay with NCI/ADR-RES ovarian, in the assay on HS 578T breast and in the assay with NCI-H23 lung was greater than 100 µM each time. The TGI in the assay with PC-3 prostate, with NCI-H460 lung, in the assay with UACC-257 melanoma and in the assay with MCF7 breast was greater than 100 µM each time.
Regarding `O=C(O)CCSC1=NCCN1`, the TGI with 786-0 renal, in the assay on HT29 colon, with DU-145 prostate, in the assay on NCI/ADR-RES ovarian, in the assay with HS 578T breast and in the assay with NCI-H23 lung was greater than 100 µM throughout. The TGI with PC-3 prostate, with NCI-H460 lung, in the assay on UACC-257 melanoma and in the assay on MCF7 breast was greater than 100 µM in each case.
Consider `Cc1ccc(/C=N\NC(=O)c2ccncc2)s1`, for which the TGI in the assay on 786-0 renal, in the assay with HT29 colon, in the assay with DU-145 prostate, with NCI/ADR-RES ovarian, in the assay with HS 578T breast and in the assay on NCI-H23 lung was greater than 100 µM throughout. Moreover, the TGI in the assay on PC-3 prostate, in the assay on NCI-H460 lung, with UACC-257 melanoma and in the assay on MCF7 breast was greater than 100 µM in each case.
Consider `Clc1nc2c(C#Cc3ccccc3)ncnc2n1C1CCCCO1` (stereo not given), for which the TGI in the assay on 786-0 renal was 25.3 µM; with HT29 colon it was 27.6 µM; in the assay with DU-145 prostate it was 63.2 µM; in the assay on NCI/ADR-RES ovarian it was greater than 100 µM; in the assay with HS 578T breast, 99.5 µM; in the assay on NCI-H23 lung it was 33.5 µM. For the same compound, the TGI in the assay on PC-3 prostate was 43.2 µM; in the assay with NCI-H460 lung it was 39.6 µM; with UACC-257 melanoma, 41.1 µM; in the assay on MCF7 breast, 20.9 µM.
As to `Cc1cn(CCOCCOC(=O)NC(CCCNC(N)=O)C(=O)O)c(=O)[nH]c1=O` (stereo not given), the TGI with 786-0 renal, with HT29 colon, in the assay on DU-145 prostate, in the assay on NCI/ADR-RES ovarian, in the assay on HS 578T breast and in the assay on NCI-H23 lung was greater than 100 µM in each case. The TGI with PC-3 prostate, in the assay on NCI-H460 lung, with UACC-257 melanoma and with MCF7 breast was greater than 100 µM each time.
`CCN(CC)C1Oc2cc3c(cc2C(c2cc(OC)c(OC)c(OC)c2)C1C)OCO3` (stereo not given): the TGI is greater than 40.6 µM in the assay with 786-0 renal; 9.95 µM with HT29 colon; greater than 91.4 µM in the assay with DU-145 prostate; 0.771 µM in the assay on NCI/ADR-RES ovarian; greater than 100 µM with HS 578T breast; greater than 49 µM in the assay on NCI-H23 lung. In addition, the TGI is greater than 57.4 µM in the assay on PC-3 prostate, 22.5 µM in the assay with NCI-H460 lung, greater than 100 µM with UACC-257 melanoma and greater than 50 µM in the assay on MCF7 breast.
Take `NC1c2c(Cl)sc(Cl)c2C(=O)C1O` (stereo not given): the TGI with 786-0 renal was greater than 100 µM; with HT29 colon, 33.9 µM; in the assay on DU-145 prostate it was greater than 100 µM; with NCI/ADR-RES ovarian it was 90.6 µM; in the assay on HS 578T breast, greater than 100 µM; in the assay on NCI-H23 lung, 32.5 µM. The TGI with PC-3 prostate is greater than 100 µM; with NCI-H460 lung, greater than 100 µM; with UACC-257 melanoma, greater than 100 µM; with MCF7 breast, 66 µM.
Turning to `CC1CN=C(c2ccc(CN3CCC(C4CCN(Cc5ccc(C6=NCC(C)N6)cc5)CC4)CC3)cc2)N1` (stereo not given), the TGI in the assay on 786-0 renal is 34.1 µM; in the assay with HT29 colon, 42.7 µM; in the assay on DU-145 prostate it was 30.6 µM; in the assay with NCI/ADR-RES ovarian, greater than 100 µM; with HS 578T breast, 41.8 µM; in the assay on NCI-H23 lung, 84.7 µM. For the same compound, the TGI in the assay with PC-3 prostate worked out at 35.8 µM; in the assay on NCI-H460 lung, 37.3 µM; in the assay with UACC-257 melanoma, 52.4 µM; with MCF7 breast it was 37.4 µM.
Take `CC(C)(Cc1ccccc1)N1C(=O)N1C(C)(C)Cc1ccccc1`: the TGI in the assay with 786-0 renal is 56.4 µM; in the assay on HT29 colon it was 32.9 µM; in the assay with DU-145 prostate it was greater than 100 µM; in the assay on NCI/ADR-RES ovarian it was greater than 100 µM; in the assay on HS 578T breast, greater than 100 µM; in the assay on NCI-H23 lung it was 65.5 µM. In addition, the TGI in the assay on PC-3 prostate, with NCI-H460 lung, with UACC-257 melanoma and in the assay with MCF7 breast was greater than 100 µM each time.
As to `O=C(O)COc1cc(-c2ccccc2)nc2ccccc12`, the TGI in the assay on 786-0 renal, in the assay with HT29 colon, with DU-145 prostate, in the assay on NCI/ADR-RES ovarian, in the assay with HS 578T breast and in the assay with NCI-H23 lung was greater than 100 µM each time. Also, the TGI in the assay on PC-3 prostate, in the assay with NCI-H460 lung, in the assay on UACC-257 melanoma and in the assay on MCF7 breast was greater than 100 µM each time.
Regarding `COc1ccc(C2SCC(=O)N2NC(=O)C(C)Oc2ccc(Cl)cc2Cl)cc1` (stereo not given), the TGI in the assay on 786-0 renal is 41.7 µM; in the assay on HT29 colon, greater than 100 µM; in the assay on DU-145 prostate, greater than 100 µM; in the assay on NCI/ADR-RES ovarian, greater than 100 µM; in the assay with HS 578T breast, greater than 100 µM; with NCI-H23 lung it was greater than 100 µM. Besides, the TGI was 75.6 µM in the assay with PC-3 prostate, greater than 100 µM in the assay with NCI-H460 lung, greater than 100 µM with UACC-257 melanoma and greater than 100 µM in the assay with MCF7 breast.
